Laboratory results published in patent publication US4886915A, “Water soluble organic ammonium per halides” (priority 1988, dated 1989).

Tests used:
[1] = Titration for oxidizable bromine (Standard Methods for the Examination of Water and Waste Water, Method 408A); conditions: for Ox. Br2 of the sample used for vapor pressure: Table 9; for Tit. Ox. Br2: Table 1, aqueous solution prepared from 48% HBr
[2] = Vapor pressure of aqueous organic ammonium perbromides (isoteniscope); conditions: for vapor pressure of bromine: 26° C., bromine water approx. 3.5% by weight, NaBr3 and perbromides roughly 40% Br2; for Vp: @ 26° C., Table 9
[3] = Perbromide closed-bottle shelf life stability at ambient temperature; conditions: for Initial Ox. Br2: time zero
Protocol: (§1) In order to determine the shelf life stability of the perbromide solutions, a series of studies were conducted to determine the percent bromine lost over time. The following tables shown below list the perbromides studied and the percent oxidizable bromine lost over time. The perbromides studied were kept in closed bottles in ambient conditions (Table 7) and at 50° C.

[4] = Water solubility of perbromides; conditions: for Solubility: in water, Tables 2 and 3
[5] = Perbromide closed-bottle shelf life stability at 50° C.; conditions: for Initial Ox. Br2: time zero
Protocol: as §1

[6] = ambient, time elapsed 24 months (#3 17, #11 16, #23 22 months)
[7] = ambient, time elapsed 24 months (#3 17, #11 16, #23 22 months), 1.0512e+06 min
[8] = Table 2, perbromide separated as bottom viscous liquid phase
[9] = 50° C., time elapsed 40 (months)
[10] = Table 4, concentrated (74.1% hydrobromide, #17) and anhydrous (100%, #18-20)

With 1,6-Hexanediammonium [compound 16] as the compound, how does the “Tit. Ox. Br” value ([1]; Table 3, crystalline perbromide precipitated out of aqueous solution) read?
The value was 51.8 % by Weight.

Which “vapor pressure of bromine” value [2] does the source give for `BrBr` [compound 35, Pure Bromine] here?
Its value is “approximately 220 mm Hg”.

And the Vp [2]?
Its Vp is 223 mmHg.

And the “Ox. Br2 of the sample used for vapor pressure” value (“Ox. Br2 of the sample used” for short) [1]?
Its value is 100 % by Weight.

Which “vapor pressure of bromine” value [2] does the source give for Bromine in H2 O [compound 34] here?
The value was 210 mm Hg.

And the Vp [2]?
The Vp was 210 mmHg.

And the “Ox. Br2 of the sample used” value [1]?
The value was 3.5 % by Weight.

What does the source list for “Dibutylammonium Perbromide [compound 11]”?
Change in % Br2 [3, 6]: 2.1%; Final Ox. Br2 [3, 6]: 41.1 % by Weight; Relative Change in % Br2 [3, 7]: 4.9%; Initial Ox. Br2 ([3]; ambient): 43.2 % by Weight; Solubility [4]: 1.0 g./100 g H2O; Vp [2]: 38 mmHg; Tit. Ox. Br [1, 8]: 40.9 % by Weight

Which “Change in % Br2” value [3, 6] does the source give for “Diethanolammonium Perbromide [Compound #4]” here?
Its value is 2.0%.

What about the “Final Ox. Br2” value [3, 6] of the same compound?
Its value is 35.0 % by Weight.

And the “Initial Ox. Br2” value ([3]; ambient)?
The value was 37.0 % by Weight.

And the “Change in % Br2” value [5, 9]?
The value was 7.0%.

What about the “Final Ox. Br2” value [5, 9] of the same compound?
Its value is 30.0 % by Weight.

And the “Initial Ox. Br2” value ([5]; 50° C.)?
Its value is 37.0 % by Weight.

And the Vp [2]?
Its Vp is 49 mmHg.

Which results are given for “Diethanolammonium Perbromide [Compound #20]”?
water solubility (in words) [4]: very soluble in water; Tit. Ox. Br [1, 10]: 45.3 % by Weight

With “Diethylethanolammonium [compound 14, reference compound]” as the compound, how does the “water solubility (in words)” value [4] read?
Its value is “only sparingly soluble in water”.

And the Solubility [4]?
Its Solubility is 0.1 g./100 g H2O.

And the “Tit. Ox. Br” value [1, 8]?
Its value is 42.3 % by Weight.

For “Dimethylethanolammonium Perbromide [Compound #7, reference compound]”, which Vp [2] is on record?
The Vp was 30 mmHg.

Which “Tit. Ox. Br” value [1, 8] does the source give for “Dipropylammonium Perbromide [compound 10]” here?
Its value is 45.1 % by Weight.

With “Ethanolammonium Perbromide [Compound #1]” as the compound, how does the “Relative Change in % Br2” value ([3]; 17520 h) read?
Its value is 4.0%.

What about the “Change in % Br2” value [3, 6] of the same compound?
Its value is 1.6%.

And the “Final Ox. Br2” value [3, 6]?
The value was 38.5 % by Weight.

And the “Initial Ox. Br2” value ([3]; ambient)?
The value was 40.1 % by Weight.

And the “Change in % Br2” value [5, 9]?
The value was 1.8%.

And the “Final Ox. Br2” value [5, 9]?
Its value is 39.0 % by Weight.

And the “Initial Ox. Br2” value ([5]; 50° C.)?
The value was 40.8 % by Weight.

What about the “Relative Change in % Br2” value ([5]; 29200 h) of the same compound?
The value was 4.4%.

For “Ethanolammonium Perbromide [Compound #17]”, which “Tit. Ox. Br” value [1, 10] is on record?
Its value is 47.3 % by Weight.

With “Ethanolammonium Perbromide [Compound #18]” as the compound, how does the “Tit. Ox. Br” value [1, 10] read?
Its value is 51.8 % by Weight.

Which results are given for “Ethanolammonium Perbromide [Compound #21]”?
Relative Change in % Br2 ([3]; 17520 h): 2.0%; Relative Change in % Br2 ([5]; 29200 h): 3.1%

For “Ethylethanolammonium Perbromide [compound 6]”, which “Tit. Ox. Br2” value [1] is on record?
The value was 37.7 % by Weight.

For Hexylammonium Perbromide [compound 8], which “Tit. Ox. Br2” value [1] is on record?
Its value is 36.1 % by Weight.

With “Methylethanolammonium Perbromide [compound 5]” as the compound, how does the Vp [2] read?
The Vp was 28 mmHg.

And the “Tit. Ox. Br2” value [1]?
The value was 39.3 % by Weight.

What about the “Ox. Br2 of the sample used” value [1] of the same compound?
Its value is 39.3 % by Weight.

Which “Tit. Ox. Br2” value [1] does the source give for Octylammonium Perbromide [compound 9] here?
The value was 34.7 % by Weight.

Which “Change in % Br2” value [3, 6] does the source give for Propylammonium Perbromide [Compound #3] here?
Its value is 0.3%.

What about the “Final Ox. Br2” value [3, 6] of the same compound?
Its value is 41.0 % by Weight.

What about the “Relative Change in % Br2” value [3, 7] of the same compound?
Its value is 0.7%.

And the “Initial Ox. Br2” value ([3]; ambient)?
Its value is 41.3 % by Weight.

What about the “Change in % Br2” value [5, 9] of the same compound?
The value was 2.0%.

And the “Final Ox. Br2” value [5, 9]?
Its value is 39.0 % by Weight.

What about the “Relative Change in % Br2” value ([5]; 50° C., time elapsed 40 (months), 1.752e+06 min) of the same compound?
Its value is 4.9%.

What about the “Initial Ox. Br2” value ([5]; 50° C.) of the same compound?
The value was 41.0 % by Weight.

What about the Vp [2] of the same compound?
Its Vp is 36 mmHg.

What about the “Tit. Ox. Br2” value [1] of the same compound?
Its value is 39.3 % by Weight.

What about the “Ox. Br2 of the sample used” value [1] of the same compound?
Its value is 39.3 % by Weight.

Which “Tit. Ox. Br” value [1, 10] does the source give for “Propylammonium Perbromide [Compound #19]” here?
Its value is 53.2 % by Weight.

With Propylammonium Perbromide [compound 22] as the compound, how does the “Relative Change in % Br2” value ([3]; 17520 h) read?
Its value is 2.3%.

What about the “Relative Change in % Br2” value ([5]; 29200 h) of the same compound?
The value was 2.7%.

Which “vapor pressure of bromine” value [2] does the source give for Sodium (NaBr3) [compound 33] here?
Its value is 140 mm Hg.

What about the Vp [2] of the same compound?
Its Vp is 145 mmHg.

With “Tributylammonium Perbromide [compound 12, reference compound]” as the compound, how does the Vp [2] read?
The Vp was 28 mmHg.

And the “Tit. Ox. Br” value [1, 8]?
Its value is 36.0 % by Weight.

What about the “Ox. Br2 of the sample used” value [1] of the same compound?
Its value is 37.5 % by Weight.
